Measurements from patent publication US10280159B2 (AbbVie Deutschland GmbH & Co. KG, priority 2015, dated 2019).

What was measured:
Type in all cases: cell-based
[1] = molecular target: T1, human S1PR5 (Homo sapiens, UniProt Q9H228); assay: Intracellular Ca2+ release (FLIPR) agonist potency, S1P5; conditions: recombinant CHO-K1 cells expressing human S1PR5, aequorin, Gq/i5; Calcium 5 FLIPR; read-out: S1P5 EC50 range
T1 construct: host or cells: CHO-K1
Summary of the method: (§1)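 Readout: FLIPR fluorescence of intracellular Ca2+ release in CHO-K1 cells co-expressing receptor, aequorin and Gq/i5. Data were normalized to the phospho-fingolimod curve; EC50 from nonlinear fit. Phospho-fingolimod served as positive control.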

[2] = molecular target: T2, human S1PR1 (Homo sapiens, UniProt P21453); assay: Intracellular Ca2+ release (FLIPR) agonist potency, S1P1; conditions: recombinant CHO-K1 cells expressing human S1PR1, aequorin, Gq/i5; Calcium 5 FLIPR; read-out: S1P1 EC50
T2 construct: host or cells: CHO-K1
T2 sequence (P21453 whole entry): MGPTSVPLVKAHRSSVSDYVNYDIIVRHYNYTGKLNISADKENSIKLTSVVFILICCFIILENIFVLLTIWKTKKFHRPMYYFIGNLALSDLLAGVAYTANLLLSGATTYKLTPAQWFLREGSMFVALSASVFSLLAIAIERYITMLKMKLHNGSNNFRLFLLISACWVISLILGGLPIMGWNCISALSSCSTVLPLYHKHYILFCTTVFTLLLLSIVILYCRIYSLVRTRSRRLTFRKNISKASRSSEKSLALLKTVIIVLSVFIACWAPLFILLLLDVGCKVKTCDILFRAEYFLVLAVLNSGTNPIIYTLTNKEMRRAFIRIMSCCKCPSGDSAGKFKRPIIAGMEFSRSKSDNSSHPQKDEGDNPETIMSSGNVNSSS
Summary of the method: as §1

[3] = molecular target: T3, human S1PR4 (Homo sapiens, UniProt O95977); assay: Intracellular Ca2+ release (FLIPR) agonist potency, S1P4; conditions: recombinant CHO-K1 cells expressing human S1PR4, aequorin, Gq/i5; Calcium 5 FLIPR; read-out: S1P4 EC50
T3 construct: host or cells: CHO-K1
T3 sequence (O95977 1-384): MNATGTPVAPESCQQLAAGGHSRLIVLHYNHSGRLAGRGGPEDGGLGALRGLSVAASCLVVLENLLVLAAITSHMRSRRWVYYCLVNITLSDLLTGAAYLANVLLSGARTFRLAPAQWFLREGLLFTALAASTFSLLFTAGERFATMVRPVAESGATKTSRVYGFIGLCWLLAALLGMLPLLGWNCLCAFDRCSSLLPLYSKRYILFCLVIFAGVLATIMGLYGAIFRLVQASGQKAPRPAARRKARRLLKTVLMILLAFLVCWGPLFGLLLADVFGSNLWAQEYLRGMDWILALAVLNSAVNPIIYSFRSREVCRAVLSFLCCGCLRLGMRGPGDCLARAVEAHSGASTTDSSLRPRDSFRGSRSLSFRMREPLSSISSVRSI
Summary of the method: as §1

T1 sequence (Q9H228 whole entry): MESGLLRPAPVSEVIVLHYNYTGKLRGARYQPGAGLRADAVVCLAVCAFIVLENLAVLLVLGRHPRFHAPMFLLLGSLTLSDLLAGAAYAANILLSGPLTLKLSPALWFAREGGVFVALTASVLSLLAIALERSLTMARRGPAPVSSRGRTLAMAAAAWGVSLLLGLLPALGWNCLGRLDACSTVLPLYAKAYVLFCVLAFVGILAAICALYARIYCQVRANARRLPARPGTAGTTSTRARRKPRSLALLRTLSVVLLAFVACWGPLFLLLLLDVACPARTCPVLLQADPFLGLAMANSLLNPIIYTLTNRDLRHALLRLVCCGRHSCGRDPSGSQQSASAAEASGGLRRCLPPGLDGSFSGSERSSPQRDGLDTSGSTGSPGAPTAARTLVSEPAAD

| Structure (SMILES) | EC50 [1] | EC50 [2] | EC50 [3] |
| --- | --- | --- | --- |
| O=C(O)CCOC1CCc2cc(OCc3ccc(C(F)(F)F)cc3)ccc2C1 (stereo not drawn) [Compound 183, 3-[6-[[4-(trifluoromethyl)phenyl]methoxy]tetralin-2-yl]oxypropanoic acid] | 1000 to 10000 nM | > 1000 nM | > 1000 nM |
| O=C(O)CCOC1CCc2cc(OCc3cccc(OC(F)(F)F)c3)ccc2C1 (stereo not drawn) [Compound 184, 3-[6-[[3-(trifluoromethoxy)phenyl]methoxy]tetralin-2-yl]oxypropanoic acid] | 1000 to 10000 nM | > 1000 nM | > 1000 nM |
| O=C(O)CCOC1CCc2cc(OCc3ccc(OC(F)(F)F)cc3)ccc2C1 (stereo not drawn) [Compound 185, 3-[6-[[4-(trifluoromethoxy)phenyl]methoxy]tetralin-2-yl]oxypropanoic acid] | 1000 to 10000 nM | > 1000 nM | > 1000 nM |
| O=C(O)CCOC1CCc2cc(OCc3cccc(F)c3F)ccc2C1 (stereo not drawn) [Compound 186, 3-[6-[(2,3-difluorophenyl)methoxy]tetralin-2-yl]oxypropanoic acid] | 1000 to 10000 nM | > 1000 nM | > 1000 nM |
| O=C(O)CCOC1CCc2cc(OCc3ccccc3Cl)ccc2C1 (stereo not drawn) [Compound 188, 3-[6-[(2-chlorophenyl)methoxy]tetralin-2-yl]oxypropanoic acid] | 1000 to 10000 nM | > 1000 nM | > 1000 nM |
| O=C(O)CCOC1CCc2cc(OCc3cccc(Cl)c3Cl)ccc2C1 (stereo not drawn) [Compound 189, 3-[6-[(2,3-dichlorophenyl)methoxy]tetralin-2-yl]oxypropanoic acid] | 1000 to 10000 nM | > 1000 nM | > 1000 nM |
| O=C(O)CCOC1CCc2cc(OCc3ccccc3OC(F)(F)F)ccc2C1 (stereo not drawn) [Compound 190, 3-[6-[[2-(trifluoromethoxy)phenyl]methoxy]tetralin-2-yl]oxypropanoic acid] | 1000 to 10000 nM | > 1000 nM | > 1000 nM |
| O=C(O)CCOC1CCc2cc(OCc3ccc(Cl)cc3)ccc2C1 (stereo not drawn) [Compound 191, 3-[6-[(4-chlorophenyl)methoxy]tetralin-2-yl]oxypropanoic acid] | 1000 to 10000 nM | > 1000 nM | > 1000 nM |
| CC(C)(C)c1ccc(COc2ccc3c(c2)CCC(OCCC(=O)O)C3)cc1 (stereo not drawn) [Compound 192, 3-[6-[(4-tert-butylphenyl)methoxy]tetralin-2-yl]oxypropanoic acid] | 1000 to 10000 nM | > 1000 nM | > 1000 nM |
| O=C(O)CCOC1CCc2cc(OCc3ccc(F)cc3)ccc2C1 (stereo not drawn) [Compound 194, 3-[6-[(4-fluorophenyl)methoxy]tetralin-2-yl]oxypropanoic acid] | 1000 to 10000 nM | > 1000 nM | > 1000 nM |
| Cc1ccc(C(F)(F)F)c(COc2ccc3c(c2)CCC(OCC(=O)O)C3)c1 (stereo not drawn) [Compound 195, 2-[6-[[5-methyl-2-(trifluoromethyl)phenyl]methoxy]tetralin-2-yl]oxyacetic acid] | 1000 to 10000 nM | > 1000 nM | > 1000 nM |
| O=C(O)COC1CCc2cc(OCc3ccccc3C(F)(F)F)ccc2C1 (stereo not drawn) [Compound 196, 2-[6-[[2-(trifluoromethyl)phenyl]methoxy]tetralin-2-yl]oxyacetic acid] | 100 to 1000 nM | > 1000 nM | > 1000 nM |
| O=C(O)COC1CCc2cc(OCc3cccc(F)c3)ccc2C1 (stereo not drawn) [Compound 198, 2-[6-[(3-fluorophenyl)methoxy]tetralin-2-yl]oxyacetic acid] | 1000 to 10000 nM | > 1000 nM | > 1000 nM |
| O=C(O)COC1CCc2cc(OCc3ccc(Cl)c(Cl)c3)ccc2C1 (stereo not drawn) [Compound 199, 2-[6-[(3,4-dichlorophenyl)methoxy]tetralin-2-yl]oxyacetic acid] | 1000 to 10000 nM | > 1000 nM | > 1000 nM |
| Cc1c(COc2ccc3c(c2)CCC(OCC(=O)O)C3)cccc1C(F)(F)F (stereo not drawn) [Compound 200, 2-[6-[[2-methyl-3-(trifluoromethyl)phenyl]methoxy]tetralin-2-yl]oxyacetic acid] | 1000 to 10000 nM | > 1000 nM | > 1000 nM |
| CSc1ccc(COc2ccc3c(c2)CCC(OCC(=O)O)C3)cc1 (stereo not drawn) [Compound 201, 2-[6-[(4-methylsulfanylphenyl)methoxy]tetralin-2-yl]oxyacetic acid] | 1000 to 10000 nM | > 1000 nM | > 1000 nM |
| O=C(O)COC1CCc2cc(OCc3ccc(OC(F)(F)F)cc3)ccc2C1 (stereo not drawn) [Compound 203, 2-[6-[[4-(trifluoromethoxy)phenyl]methoxy]tetralin-2-yl]oxyacetic acid] | 1000 to 10000 nM | > 1000 nM | > 1000 nM |

| Structure (SMILES) | EC50 [1] | EC50 [2] | EC50 [3] |
| --- | --- | --- | --- |
| O=C(O)COC1CCc2cc(OCc3cccc(F)c3F)ccc2C1 (stereo not drawn) [Compound 204, 2-[6-[(2,3-difluorophenyl)methoxy]tetralin-2-yl]oxyacetic acid] | 1000 to 10000 nM | > 1000 nM | > 1000 nM |
| O=C(O)COC1CCc2cc(OCc3cccc(Cl)c3)ccc2C1 (stereo not drawn) [Compound 205, 2-[6-[(3-chlorophenyl)methoxy]tetralin-2-yl]oxyacetic acid] | 100 to 1000 nM | > 1000 nM | > 1000 nM |
| O=C(O)COC1CCc2cc(OCc3ccccc3Cl)ccc2C1 (stereo not drawn) [Compound 206, 2-[6-[(2-chlorophenyl)methoxy]tetralin-2-yl]oxyacetic acid] | 1000 to 10000 nM | > 1000 nM | > 1000 nM |
| O=C(O)COC1CCc2cc(OCc3ccccc3OC(F)(F)F)ccc2C1 (stereo not drawn) [Compound 208, 2-[6-[[2-(trifluoromethoxy)phenyl]methoxy]tetralin-2-yl]oxyacetic] | 100 to 1000 nM | > 1000 nM | > 1000 nM |
| O=C(O)COC1CCc2cc(OCc3ccc(Cl)cc3)ccc2C1 (stereo not drawn) [Compound 209, 2-[6-[(4-chlorophenyl)methoxy]tetralin-2-yl]oxyacetic acid] | 1000 to 10000 nM | > 1000 nM | > 1000 nM |
| O=C(O)COC1CCc2cc(OCc3ccc(F)c(F)c3)ccc2C1 (stereo not drawn) [Compound 212, 2-[6-[(3,4-difluorophenyl)methoxy]tetralin-2-yl]oxyacetic acid] | 1000 to 10000 nM | > 1000 nM | > 1000 nM |
| O=C(O)COC1CCc2cc(OCc3ccc(F)cc3)ccc2C1 (stereo not drawn) [Compound 214, 2-[6-[(4-fluorophenyl)methoxy]tetralin-2-yl]oxyacetic acid] | 1000 to 10000 nM | > 1000 nM | > 1000 nM |
| CCc1cccc(Cl)c1COc1ccc2c(c1)CCC(N1CC(C(=O)N(C)OC)C1)C2 (stereo not drawn) [Compound 217, 1-[6-[(2-chloro-6-ethyl-phenyl)methoxy]tetralin-2-yl]-N-methoxy-N-methyl-azetidine-3-carboxamide] | 100 to 1000 nM | > 1000 nM | > 1000 nM |
| O=C(O)C1CN(C2COc3cc(OCc4c(Cl)cccc4Cl)c(Br)cc3C2)C1 (stereo not drawn) [Compound 221, 1-[6-bromo-7-[(2,6-dichlorophenyl)methoxy]chroman-3-yl]azetidine-3-carboxylic acid] | 10 to 100 nM | > 1000 nM | > 1000 nM |
| Cc1cc2c(cc1OCc1c(Cl)cccc1Cl)OCC(N1CC(C(=O)O)C1)C2 (stereo not drawn) [Compound 222, 1-[7-[(2,6-dichlorophenyl)methoxy]-6-methyl-chroman-3-yl]azetidine-3-carboxylic acid] | 10 to 100 nM | > 1000 nM | > 1000 nM |
| O=C(O)C1CN(C2CCOc3cc(OCc4c(Cl)cccc4Cl)c(F)cc32)C1 (stereo not drawn) [Compound 223, 1-[7-[(2,6-dichlorophenyl)methoxy]-6-fluoro-chroman-4-yl]azetidine-3-carboxylic acid] | < 10 nM | > 1000 nM | > 1000 nM |
| O=C(O)C1CN(C2COc3c(cccc3OCc3c(Cl)cccc3Cl)C2)C1 (stereo not drawn) [Compound 225, 1-[8-[(2,6-dichlorophenyl)methoxy]chroman-3-yl]azetidine-3-carboxylic acid] | 1000 to 10000 nM | > 1000 nM | > 1000 nM |
| O=C(O)C1CN(C2COc3cc(OCCc4ccccc4)ccc3C2)C1 (stereo not drawn) [Compound 226, 1-(7-phenethyloxychroman-3-yl)azetidine-3-carboxylic acid] | 1000 to 10000 nM | > 1000 nM | > 1000 nM |
| O=C(O)C1CN(C2COc3cc(OCCc4ccccc4Cl)ccc3C2)C1 (stereo not drawn) [Compound 227, 1-[7-[2-(2-chlorophenyl)ethoxy]chroman-3-yl]azetidine-3-carboxylic acid] | 1000 to 10000 nM | > 1000 nM | > 1000 nM |
| O=C(O)C1CN(C2COc3cc(OCCc4ccc(Cl)cc4)ccc3C2)C1 (stereo not drawn) [Compound 228, 1-[7-[2-(4-chlorophenyl)ethoxy]chroman-3-yl]azetidine-3-carboxylic acid] | 1000 to 10000 nM | > 1000 nM | > 1000 nM |
| O=C(O)C1CN(C2COc3cc(Oc4c(Cl)cccc4Cl)ccc3C2)C1 (stereo not drawn) [Compound 229, 1-[7-(2,6-dichlorophenoxy)chroman-3-yl]azetidine-3-carboxylic acid] | 1000 to 10000 nM | > 1000 nM | > 1000 nM |
| O=C(O)C1CN(C2COc3cc(OCC4CCC4)ccc3C2)C1 (stereo not drawn) [Compound 230, 1-[7-(cyclobutylmethoxy)chroman-3-yl]azetidine-3-carboxylic acid] | 1000 to 10000 nM | > 1000 nM | > 1000 nM |
